Assay results: US8207172B2 (Bayer Intellectual Property GmbH, priority 2004, dated 2012)
Counter-ions that a name gives are not always drawn.

Key:
[1] = test system: BT474 (human breast carcinoma); test: In vitro tumor cell proliferation assay (Cell Titer-Glo luminescent cell viability), BT474; format: cell-based; settings: BT-474, 72 h, BT474 cells, 72 hours of drug exposure, ATP luminescence readout, read-out: IC50, anti-proliferative activity (inhibition of cell proliferation)
Outline: (§1)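 Proliferation inhibition was measured as ATP-dependent luciferase signal after cells in RPMI with 10% FBS received test compound for 72 h at 37° C. Final concentrations spanned […] to 64 pM in 0.1% DMSO; IC50 values were derived.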

[2] = test system: A431 cells (human epidermoid carcinoma); test: In vitro tumor cell proliferation assay (Cell Titer-Glo luminescent cell viability), A431; format: cell-based; settings: A-431, 72 h, 72 hours of drug exposure, ATP luminescence readout, read-out: IC50, anti-proliferative activity (inhibition of cell proliferation)
Outline: as §1

Structure (SMILES) | IC50 [1] | IC50 [2]
CN1CCN(CCn2cc3c(n2)CCc2c-3sc3ncnc(Nc4ccc(Cl)c(Cl)c4)c23)CC1 [Example 45, N-(3,4-dichlorophenyl)-2-[2-(4-methylpiperazin-1-yl)ethyl]-4,5-dihydro-2H-pyrimido[5′,4′:4,5]thieno[2,3-e]indazol-6-amine] | ≤ 1000 nM | ≤ 5 µM
CS(=O)(=O)CCNCCn1ncc2c1CCc1c-2sc2ncnc(Nc3ccc(OCc4cccc(F)c4)c(Cl)c3)c12 [Example 85, N-{3-chloro-4-[(3-fluorobenzyl)oxy]phenyl}-3-(2-{[2-(methylsulfonyl)ethyl]amino}ethyl)-4,5-dihydro-3H-pyrimido[5′,4′:4,5]thieno[2,3-e]indazol-6-amine] | ≤ 1000 nM | ≤ 5 µM
O[C@H](CN1CC[C@H](O)C1)Cn1cc2c(n1)CCc1c-2sc2ncnc(Nc3ccc(OCc4cccc(F)c4)c(Cl)c3)c12 [Example 150, (3S)-1-{(2R)-3-[6-({3-chloro-4-[(3-fluorobenzyl)oxy]phenyl}amino)-4,5-dihydro-2H-pyrimido[5′,4′:4,5]thieno[2,3-e]indazol-2-yl]-2-hydroxypropyl}pyrrolidin-3-ol trifluoroacetate (salt)] | ≤ 1000 nM | ≤ 50 µM
Fc1cccc(COc2ccc(Nc3ncnc4sc5c(c34)CCc3nn(CCNCCN4CCOCC4)cc3-5)cc2Cl)c1 [Example 68, N-{3-chloro-4-[(3-fluorobenzyl)oxy]phenyl}-2-{2-[(2-morpholin-4-ylethyl)amino]ethyl}-4,5-dihydro-2H-pyrimido[5′,4′:4,5]thieno[2,3-e]indazol-6-amine] | ≤ 1000 nM | ≤ 5 µM
Fc1cccc(COc2ccc(Nc3ncnc4sc5c(c34)CCc3c-5cnn3CCN3CCCCC3)cc2Cl)c1 [Example 266, trifluoroacetate] | ≤ 1000 nM | ≤ 5 µM
CN1CCN(CCn2ncc3c2CCc2c-3sc3ncnc(Nc4ccc5c(cnn5Cc5cccc(F)c5)c4)c23)CC1 [Example 295, 3-[2-(4-methylpiperazin-1-yl)ethyl]-N-[1-(3-fluorobenzyl)-1H-indazol-5-yl]-4,5-dihydro-3H-pyrimido[5′,4′:4,5]thieno[2,3-e]indazol-6-amine] | ≤ 1000 nM | ≤ 5 µM
CN1CCN(CCn2cc3c(n2)CCc2c-3sc3ncnc(Nc4ccc(SCc5ccncc5)cc4)c23)CC1 [Example 342, 2-[2-(4-methylpiperazin-1-yl)ethyl]-N-{4-[(pyridin-4-ylmethyl)thio]phenyl}-4,5-dihydro-2H-pyrimido[5′,4′:4,5]thieno[2,3-e]indazol-6-amine] | ≤ 5000 nM | ≤ 50 µM
CN1CCN(CCn2cc3c(n2)CCc2c-3sc3ncnc(Nc4ccc(OCc5ccc(Cl)cc5)c(Cl)c4)c23)CC1 [Example 331, N-{3-chloro-4-[(4-chlorobenzyl)oxy]phenyl}-2-[2-(4-methylpiperazin-1-yl)ethyl]-4,5-dihydro-2H-pyrimido[5′,4′:4,5]thieno[2,3-e]indazol-6-amine] | ≤ 1000 nM | ≤ 5 µM

The remaining lines, values ahead:

IC50 [1] | IC50 [2] | Structure (SMILES)
≤ 5000 nM | ≤ 5 µM | COCCNCCn1cc2c(n1)CCc1c-2sc2ncnc(Nc3ccc(F)c(Cl)c3)c12 [Example 4, N-(3-chloro-4-fluorophenyl)-2-{2-[(2-methoxyethyl)amino]ethyl}-4,5-dihydro-2H-pyrimido[5′,4′:4,5]thieno[2,3-e]indazol-6-amine]
≤ 1000 nM | ≤ 5 µM | CN(C)C1CCN(CCn2cc3c(n2)CCc2c-3sc3ncnc(Nc4ccc(F)c(Cl)c4)c23)C1 (centres unmarked) [Example 15, N-(3-chloro-4-fluorophenyl)-2-{2-[3-(dimethylamino)pyrrolidin-1-yl]ethyl}-4,5-dihydro-2H-pyrimido[5′,4′:4,5]thieno[2,3-e]indazol-6-amine]
≤ 5000 nM | ≤ 5 µM | OCCN(CCO)CCn1cc2c(n1)CCc1c-2sc2ncnc(Nc3ccc(F)c(Cl)c3)c12 [Example 26, 2,2′-[(2-{6-[(3-chloro-4-fluorophenyl)amino]-4,5-dihydro-2H-pyrimido[5′,4′:4,5]thieno[2,3-e]indazol-2-yl}ethyl)imino]diethanol]
≤ 5000 nM | ≤ 5 µM | Cc1cccc(COc2ccc(Nc3ncnc4sc5c(c34)CCc3c-5cnn3CCN3CCN(C)CC3)cc2Cl)c1 [Example 320, N-{3-chloro-4-[(3-methylbenzyl)oxy]phenyl}-3-(2-(4-methylpiperazin-1-yl)ethyl]-4,5-dihydro-3H-pyrimido[5′,4′:4,5]thieno[2,3-e]indazol-6-amine trifluoroacetate]
≤ 1000 nM | ≤ 50 µM | CCOC(=O)Cn1ncc2c1CCc1c-2sc2ncnc(Nc3ccc(OCc4cccc(F)c4)c(Cl)c3)c12 [Example 190, ethyl [6-({3-chloro-4-[(3-fluorobenzyl)oxy]phenyl}amino)-4,5-dihydro-3H-pyrimido[5′,4′:4,5]thieno[2,3-e]indazol-3-yl]acetate]
≤ 1000 nM | ≤ 5 µM | CN(C)[C@H]1CCN(CC(=O)N2CCC(n3cc4c(n3)CCc3c-4sc4ncnc(Nc5ccc(OCc6cccc(F)c6)c(Cl)c5)c34)CC2)C1 [Example 223, N-{3-chloro-4-[(3-fluorobenzyl)oxy)phenyl}-2-(1-{[(3S)-3-(dimethylamino)pyrrolidin-1-yl]acetyl}piperidin-4-yl)-4,5-dihydro-2H-pyrimido[5′,4′:4,5]thieno[2,3-e]indazol-6-amine]
≤ 5000 nM | ≤ 50 µM | CN1CCN(CCn2cc3c(n2)CCc2c-3sc3ncnc(Nc4ccc(O)c(Cl)c4)c23)CC1 [Example 46, 2-chloro-4-({2-[2-(4-methylpiperazin-1-yl)ethyl]-4,5-dihydro-2H-pyrimido[5′,4′:4,5]thieno[2,3-e]indazol-6-yl}amino)phenol]
≤ 1000 nM | ≤ 5 µM | OCCn1ncc2c1CCc1c-2sc2ncnc(Nc3ccc4c(cnn4Cc4cccc(F)c4)c3)c12 [Example 289, 2-(6-{[1-(3-fluorobenzyl)-1H-indazol-5-yl]amino}-4,5-dihydro-3H-pyrimido[5′,4′:4,5]thieno[2,3-e]indazol-3-yl)ethanol]
≤ 5000 nM | ≤ 50 µM | Cc1cccc(COc2ccc(Nc3ncnc4sc5c(c34)CCc3nn(CCN4CCOCC4)cc3-5)cc2Cl)n1 [Example 119, N-{3-chloro-4-[(6-methylpyridin-2-yl)methoxy]phenyl}-2-(2-morpholin-4-ylethyl)-4,5-dihydro-2H-pyrimido[5′,4′:4,5]thieno[2,3-e]indazol-6-amine]
≤ 1000 nM | ≤ 5 µM | Fc1cccc(COc2ccc(Nc3ncnc4sc5c(c34)CCc3nn(CCC4CCN(Cc6ccco6)CC4)cc3-5)cc2Cl)c1 [Example 248, N-{3-chloro-4-[(3-fluorobenzyl)oxy]phenyl}-2-{2-[1-(2-furylmethyl)piperidin-4-yl]ethyl}-4,5-dihydro-2H-pyrimido[5′,4′:4,5]thieno[2,3-e]indazol-6-amine]
≤ 1000 nM | ≤ 5 µM | Fc1ccc(Nc2ncnc3sc4c(c23)CCc2nn(CCNCCN3CCOCC3)cc2-4)cc1Cl [Example 7, N-(3-chloro-4-fluorophenyl)-2-{2-[(2-morpholin-4-ylethyl)amino]ethyl]-4,5-dihydro-2H-pyrimido[5′,4′:4,5]thieno[2,3-e]indazol-6-amine]
